This assay deals with T1, human 5-HT4(a) (Homo sapiens, UniProt Q13639).
T1 construct: host or cells: GeneBlAzer HTR4-CRE-bla CHO-K1 cells
As to the kind of experiment: Evaluation of agonistic activity in CHO-K1 cells expressing human 5-HT4(a) (GeneBlAzer HTR4-CRE-bla CHO-K1, beta-lactamase reporter). The class given is cell-based. The settings on record: CHO-K1 cells stably expressing human 5-HT4(a). As to the method:
Test Example 1: Evaluation of Agonistic Activity in CHO-K1 Cells Expressing Human 5-HT4(a)
As CHO-K1 cells stably expressing human 5-HT4(a), we used the GeneBlAzer HTR4-CRE-bla CHO-K1 cells (Invitrogen Corp.). The cells were cultured, under the condition of 37[…] and 5% CO2, in a DMEM supplemented with 10% fetal bovine serum (FBS), 25 mM HEPES (pH7.4), 600 μg/ml hygromycin B, 0.1 mM non-essential amino acids, 100 unit/ml penicillin and 100 μg/ml streptomycin. Subcultures were performed three times per one week, each being at less than 80% confluence. At the previous day before treating test compounds, the cells were collected using 0.5% trypsin/EDTA and then diluted with a DMEM supplemented with 1% FBS, 25 mM HEPES, and 0.1 mM non-essential amino acids into 3.125×10^5 cells/ml. 32 μl of the diluted cells were added into 384-well plate (10^4 cells per well) and then incubated overnight. After the overnight culture, 8 μl of the medium having 1% of DMSO was added into the cell-free control well and the non-stimulating control well, respectively. 8 μl of the respective test compound dilutions (which had been prepared by diluting by 100-times with the medium as mentioned in the above) having 1% of DMSO were added to the respective remaining wells. After being cultured in the incubator for 5 hours, the wells of the 384-plate were treated with the substrate solution (8 μl per well) prepared according to the vendor's instruction (i.e., Invitrogen's instruction), and then incubated in the dark room for additional two hours. Agonistic activities on 5-HT4 receptor were evaluated, on the basis of fluorescence values of the cleavage-products by beta-lactamase. After exciting to 410 nm of wavelength using a fluorescence detector (Genios Pro), we measured the fluorescence values at two emission wavelengths (first wavelength: 465 nm, second wavelength: 535 nm). Data were analyzed on the basis of the ratio of fluorescence intensities of each well at the respective wavelengths. Each EC50 value was calculated by non-linear regression analysis using the “GraphPad Prism” program, based on the activities according to 8-different concentrations of the test compounds.

Structures are written as SMILES. Where a name gives a salt, the structure may show the parent alone.

T1 sequence (Q13639 1-387 isoform Q13639-2): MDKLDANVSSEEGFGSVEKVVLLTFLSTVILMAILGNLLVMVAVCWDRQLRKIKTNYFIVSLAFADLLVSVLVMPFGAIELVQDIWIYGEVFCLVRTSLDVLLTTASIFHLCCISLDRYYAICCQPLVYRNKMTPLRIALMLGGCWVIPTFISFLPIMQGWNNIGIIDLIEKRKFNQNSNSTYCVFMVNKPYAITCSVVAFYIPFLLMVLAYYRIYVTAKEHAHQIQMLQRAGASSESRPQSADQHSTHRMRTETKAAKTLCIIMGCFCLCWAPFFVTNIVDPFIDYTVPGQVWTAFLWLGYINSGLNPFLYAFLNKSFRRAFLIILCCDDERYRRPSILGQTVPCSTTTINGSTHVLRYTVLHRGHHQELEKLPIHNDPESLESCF

Compound `CCCCc1cc(N2CC[C@H](NC(C)=O)C2)nc(Nc2ccc(C)c([N+](=O)[O-])c2)n1` [Example 436] returned a half-maximal effective concentration (EC50) of 10 pM. Compound `CCCc1cc(N2CC[C@H](NC3CCCCCCC3)C2)nc(Nc2cccc(C#N)c2)n1` [Example 141, (S)-3-{4-[3-(cyclooctylamino)pyrrolidin-1-yl]-6-propylpyrimidin-2-ylamino}benzonitrile] returned an EC50 of 85 pM. `CCCc1cc(N2CCC[C@H]2COC)nc(Nc2cccc(N)c2)n1` [Example 364]: the EC50 came out at 122 pM. Consider `CCCc1cc(N2CCC[C@H]2C)nc(Nc2ccc(C)c([N+](=O)[O-])c2)n1` [Example 321, (R)—N-(4-methyl-3-nitrophenyl)-4-(2-methylpyrrolidin-1-yl)-6-propylpyrimidin-2-amine], for which the EC50 is 44 pM. In turn, `CCCc1cc(N2CCC(NCC)C2)nc(Nc2ccc(C)c(C#N)c2)n1` (centres unmarked) [Example 173] returned an EC50 of 4 pM. For `CCCc1cc(N2CCC[C@H]2C)nc(Nc2ccc(N)c(C(F)(F)F)c2)n1` [Example 323, (R)—N^1-[4-(2-methylpyrrolidin-1-yl)-6-propylpyrimidin-2-yl]-3-(trifluoromethyl)benzene-1,4-diamine], a half-maximal response (EC50) required 27 pM.

Compound `CCCCc1cc(N2CC[C@H](NC)C2)nc(Nc2ccc(F)c(C#N)c2)n1` [Example 455] registered an EC50 of 3.8 pM. The figure for `CCCc1cc(N2CC[C@H](NCc3ccccc3F)C2)nc(Nc2cccc(C#N)c2)n1` [Example 106, (S)-3-{4-[3-(2-fluorobenzylamino)pyrrolidin-1-yl]-6-propylpyrimidin-2-ylamino}benzonitrile] is 130 pM.

`CCCc1cc(N2CC[C@H](NC(C)=O)C2)nc(Nc2ccc(F)c(C(F)(F)F)c2)n1` [Example 253] gave a half-maximal effective concentration (EC50) of 14 pM.

The compound `CCCc1cc(N2CCC[C@H]2COC)nc(Nc2ccc(N)c([N+](=O)[O-])c2)n1` [Example 46, (S)-N^1-{4-[2-(methoxymethyl)pyrrolidin-1-yl]-6-propylpyrimidin-2-yl}-3-nitrobenzene-1,4-diamine] yielded a 50% effective concentration (EC50) of 9.7 pM. The compound `CCCc1cc(N2CC[C@H](NC(C)=O)C2)nc(Nc2ccc(OC)c(N)c2)n1` [Example 289] gave an EC50 of 62 pM.

Take `CCCc1cc(N2CC[C@H](NCC)C2)nc(Nc2ccc(N)c([N+](=O)[O-])c2)n1` [Example 177]: the EC50 was 20 pM. Compound `CCCc1cc(N2CC[C@H](N)C2)nc(Nc2cccc([N+](=O)[O-])c2)n1` [Example 350, (S)-4-(3-aminopyrrolidin-1-yl)-N-(3-nitrophenyl)-6-propylpyrimidin-2-amine dihydrochloride] came in with an EC50 of 12 pM. As for `CCCNC[C@@H]1CCCN1c1cc(CCC)nc(Nc2cccc(C#N)c2)n1` [Example 406], the EC50 worked out at 402 pM. Compound `CCCc1cc(N2CC[C@H](N)C2)nc(Nc2cccc(SC)c2)n1` [Example 345, (S)-4-(3-aminopyrrolidin-1-yl)-N-[3-(methylthio)phenyl]-6-propylpyrimidin-2-amine dihydrochloride] displayed an EC50 of 62 pM. With `CCCc1cc(N2CC[C@H](NC(=O)CO)C2)nc(Nc2cccc(C#N)c2)n1` [Example 157, (S)-N-{1-[2-(3-cyanophenylamino)-6-propylpyrimidin-4-yl]pyrrolidin-3-yl}-2-hydroxyacetamide], the response was half-maximal at 44 pM (EC50). Compound `CCCc1cc(N2CC[C@H](NC(C)=O)C2)nc(Nc2cc(Cl)ccc2C)n1` [Example 255] gave an EC50 of 23 pM.

For the compound `CCCc1cc(N2CC[C@H](NCc3ccncc3)C2)nc(Nc2cccc(C#N)c2)n1` [Example 103, (S)-3-{4-propyl-6-[3-(pyridin-4-ylmethylamino)pyrrolidin-1-yl]pyrimidin-2-ylamino}benzonitrile], the EC50 was found to be 67 pM. `CCCc1cc(N2CC[C@H](N)C2)nc(Nc2ccc(C)c(N)c2)n1` [Example 369] displayed an EC50 of 49 pM. `CCCc1cc(N2CC[C@H](NC(C)=O)C2)nc(Nc2ccc(C)c(F)c2)n1` [Example 282]: it took 103 pM to reach a half-maximal effect (EC50). As for `CCCc1cc(N2CC[C@H](NC)C2)nc(Nc2cc(N)cc(C#N)c2)n1` [Example 485], the EC50 was found to be 2.4 pM. On to `CCCc1cc(N2CC[C@H](N(CC3CC3)CC3CC3)C2)nc(Nc2cccc(C#N)c2)n1` [Example 100, (S)-3-(4-{3-[bis (cyclopropylmethyl)amino]pyrrolidin-1-yl}-6-propylpyrimidin-2-ylamino)benzonitrile], for which the 50% effective concentration (EC50) turned out to be 310 pM. Regarding `CCCc1cc(N2CC[C@H](NC(=O)CO)C2)nc(Nc2ccc(N)c(C(F)(F)F)c2)n1` [Example 476], a half-maximal response (EC50) required 14 pM. In the case of `CCCCCCN[C@H]1CCN(c2cc(CCC)nc(Nc3cccc(C#N)c3)n2)C1` [Example 84, (S)-3-{4-[3-(hexylamino)pyrrolidin-1-yl]-6-propylpyrimidin-2-ylamino}benzonitrile], the concentration giving a half-maximal response (EC50) was 31 pM. Compound `CCCc1cc(N2CCC[C@H]2COC)nc(Nc2ccc(N)c(C#N)c2)n1` [Example 45, (S)-2-amino-5-{4-[2-(methoxymethyl)pyrrolidin-1-yl]-6-propylpyrimidin-2-ylamino}benzonitrile] had a concentration giving a half-maximal response (EC50) of 36 pM. `CCCc1cc(N2CC[C@H](NCC3CC3)C2)nc(Nc2cccc(C(F)(F)F)c2)n1` [Example 379]: the EC50 turned out to be 9.8 pM.

Compound `CCCc1cc(N2CCC[C@H]2C)nc(Nc2ccc(F)c(C#N)c2)n1` [Example 325] gave an EC50 of 85 pM. On to `CCCCc1cc(N2CC[C@H](NC)C2)nc(Nc2ccc(Cl)c([N+](=O)[O-])c2)n1` [Example 450], for which the 50% effective concentration (EC50) was found to be 7.8 pM. With `CCCCc1cc(N2CC[C@H](NC)C2)nc(Nc2ccc(N)c([N+](=O)[O-])c2)n1` [Example 338], the response was half-maximal at 3.2 pM (EC50). Take `CCCc1cc(N2CCC[C@H]2C)nc(Nc2ccc(OC)c(N)c2)n1` [Example 331]: the EC50 was 138 pM. As for `CCCc1cc(N2CC[C@H](NCC3CC3)C2)nc(Nc2ccc(C)c(Cl)c2)n1` [Example 381], the EC50 turned out to be 4.3 pM. `CCCc1cc(N2CC[C@H](NCc3cccs3)C2)nc(Nc2cccc(C#N)c2)n1` [Example 112, (S)-3-{4-propyl-6-[3-(thiophen-2-ylmethylamino)pyrrolidin-1-yl]pyrimidin-2-ylamino}benzonitrile]: the 50% effective concentration (EC50) was found to be 45 pM. With `CCCCc1cc(N2CC[C@H](NC(C)=O)C2)nc(Nc2ccc(F)c([N+](=O)[O-])c2)n1` [Example 437], the EC50 was determined as 20 pM. As for `CCCN[C@H]1CCN(c2cc(CCC)nc(Nc3ccc(C)c(C#N)c3)n2)C1` [Example 414], it took 3.4 pM to reach a half-maximal effect (EC50). `CCCc1cc(N2CC[C@H](NC(=O)CCCN(C)C)C2)nc(Nc2cccc(C#N)c2)n1` [Example 162] came in with an EC50 of 193 pM. For the compound `CCCc1cc(N2CC[C@H](NC)C2)nc(Nc2cccc(C#N)c2)n1` [Example 50, (S)-3-{4-[3-(methylamino)pyrrolidin-1-yl]-6-propylpyrimidin-2-ylamino}benzonitrile], the EC50 is 12 pM. Turning to `CCCCC(C)N[C@H]1CCN(c2cc(CCC)nc(Nc3cccc(C#N)c3)n2)C1` (stereo partly drawn) [Example 133, (S)-3-{4-[3-(n-hexan-2-ylamino)pyrrolidin-1-yl]-6-propylpyrimidin-2-ylamino}benzonitrile], the midpoint of the response, the EC50, lay at 39 pM. `CCCc1cc(N2CC[C@H](NC(CC(C)C)CC(C)C)C2)nc(Nc2cccc(C#N)c2)n1` [Example 129, (S)-3-{4-[3-(2,6-dimethylheptan-4-ylamino)pyrrolidin-1-yl]-6-propylpyrimidin-2-ylamino}benzonitrile] registered an EC50 of 323 pM.
